Consider 33 molecules from patent US10988451B2, “MCL-1 inhibitors” (Gilead Sciences, Inc., priority 2018, dated 2021).

Like-named read-outs stand apart in the source and are kept apart here.

For assay [1], the system named is SKBR3 cells. The assay can be described thus: SKBR3 Cell Viability Assay. In kind it is cell-based. Conditions: CellTiter Glo, read-out: MCL-1 CV SKBR3 EC50. As for the experimental part: SKBR3 Cell Viability Assay Materials
SKBR3 Cells (ATCC HTB-30) were obtained from ATCC (Manassas, Va.) and cultured in McCoy 5A's medium (ATCC 30-2007)+10% fetal bovine serum (SH30071.03, HyClone, Pittsburgh, Pa.) plus 1× Penicillin-Streptomycin L-glutamine (Corning 30-009-C1, Corning, N.Y.)).
The cell viability assay was conducted in a 384-well tissue culture plate (Grenier 781086, Monroe, N.C.) in a total volume of 70 μL. Test compounds were prepared in 1,000×, serially diluted, and pre-spotted into 384-well tissue culture plate by Echo 555 Liquid Handler (Labcyte Inc., San Jose, Calif.). Seventy μ1 of 6,000 SKBR3 cells were dispensed into each well of the plate and incubated at 37° C. with 5% CO2 for 72 hours. At the end of incubation, 2× CellTiter Glo (CTG) reagents (1 part buffer with 2 parts substrate) (Promega, Madison, Wis.) were prepared, and the plate and the reagent were equilibrated to room temperature for 30 minutes. CTG reagent was added to each plate by Biomek FX at 20 μL/well with 5 times pipetting and mixing to induce cell lysis. Luminescence was read by Envision multimode reader (PerkinElmer). […] Percent inhibition was calculated as followed: % Inhibition=100%*(Well−Neg)/(Pos−Neg) Neg, negative control, DMSO Pos, positive control, 10 μM Puromycin

The target in assay [2] is MCL-1/Bim (Homo sapiens (Human), UniProt Q07820). Put plainly: MCL-1/Bim Binding AlphaLISA Assay. Conditions: 6xHis-Mcl-1 (171-327) and biotinylated Bim peptide (51-76). How it is done: MCL-1/Bim Binding AlphaLISA Assay.
Inhibition of the MCL-1 and Bim interaction was measured in the following AlphaLISA assay.
Recombinant human MCL-1 protein (C-terminal 6×His Tagged Mcl-1 containing residues 171-327) was generated at Gilead Sciences, Inc. (Foster City, Calif.). A biotinylated peptide derived from human Bim (residues 51-76) was purchased from CPC Scientific (Sunnyvale, Calif.). (CPC 834113). AlphaLISA anti-6His-acceptor beads (AL128R), AlphaScreen Streptavidin donor beads (6760002B), and Proxiplate-384 Plus (6008289) were purchased from PerkinElmer.
The AlphaLISA assay was performed in a 384-well Proxiplate in a total volume of 40 μL. The reaction mixture contained 0.0625 nM 6× His-Mcl-1 (171-327), 0.0625 nM biotinylated-Bim peptide, 10 μg/mL AlphaLISA anti-6×His-AlphaLISA acceptor beads, 40 μg/mL AlphaScreen streptavidin donor beads, and serially diluted test compounds in the binding buffer (20 mM Hepes, pH 7.5 (Teknova H1035); 150 mM NaCl (Promega V4221); 0.002% Brij 35 (Thermo Scientific 20150); 1 mM Dithiothreitol (DTT) Solution (Affymetrix 70726); 0.01% BSA (BioLabs B9000S)). 1,000× test compounds were pre-spotted onto 384-well Proxiplate (Labcyte Echo) by Echo 555 Liquid Handler (Labcyte Inc., San Jose, Calif.) followed by incubation of 5 μl Mcl-1(171-327) for 1 hour. Then 5 μL Bim (51-76) was added and incubated for 2 hours. Five μL AlphaLISA anti-6His-AlphaLISA acceptor beads were then added for 1 hour followed by addition of 5 μL AlphaScreen streptavidin donor beads for 1 hour. The reaction plates were then read on an Envision multimode reader (PerkinElmer) using AlphaScreen settings. […] Percent inhibition was calculated as shown below: % Inhibition=100%*(Well−Neg)/(Pos−Neg) Neg: negative control, DMSO Pos: positive control, no Mcl-1 protein, no biotinylated-Bim peptide
Background: In Alpha technology, singlet oxygen from a donor bead excites a nearby acceptor bead.

Sequence of MCL-1/Bim (Q07820 171-327): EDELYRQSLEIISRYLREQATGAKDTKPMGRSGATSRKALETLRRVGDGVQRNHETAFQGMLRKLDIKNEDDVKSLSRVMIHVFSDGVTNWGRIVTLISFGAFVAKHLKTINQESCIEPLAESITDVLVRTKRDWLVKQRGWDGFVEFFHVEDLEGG

On to `CO[C@H]1/C=C/CCC[S@@](=O)(NC(=O)CC(F)(F)F)=NC(=O)c2ccc3c(c2)N(C[C@@H]2CC[C@H]21)C[C@@]1(CCCc2cc(Cl)ccc21)CO3` [Example 23], for which, in assay [1] (72 hours), the 50% effective concentration (EC50) was 1450 nM. As for `CCOC(=O)NS1(=O)=NC(=O)c2ccc3c(c2)N(C[C@@H]2CC[C@H]2[C@@H](OC)/C=C/CCC1)C[C@@]1(CCCc2cc(Cl)ccc21)CO3` (single isomer, unassigned) [Example 10], the concentration for half-maximal inhibition (IC50) in assay [2] amounted to 3.6 nM.

Turning to `CO[C@H]1/C=C/CCC[S@@](=O)(NC(=O)C2CC2)=NC(=O)c2ccc3c(c2)N(C[C@@H]2CC[C@H]21)C[C@@]1(CCCc2cc(Cl)ccc21)CO3` [Example 27], in assay [1] (72 hours), the EC50 is 2080 nM. On the same count and under the same terms, next, `CO[C@H]1/C=C/C[C@H](C)C[S@@](=O)(NC(=O)N2C[C@@H](OC)[C@@H]2C)=NC(=O)c2ccc3c(c2)N(C[C@@H]2CC[C@H]21)C[C@@]1(CCCc2cc(Cl)ccc21)CO3` [Example 253]: 39.2 nM.

As for `CO[C@H]1/C=C/CCC[S@@](=O)(NC(=O)CCS(C)(=O)=O)=NC(=O)c2ccc3c(c2)N(C[C@@H]2CC[C@H]21)C[C@@]1(CCCc2cc(Cl)ccc21)CO3` [Example 28], in assay [1] (72 hours), the EC50 came out at 8410 nM. The same measure, in the same setting: the result for `CO[C@H]1/C=C/C[C@H](C)C[S@@](=O)(NC(=O)c2cc3n(c2)CCc2c-3cnn2C)=NC(=O)c2ccc3c(c2)N(C[C@@H]2CC[C@H]21)C[C@@]1(CCCc2cc(Cl)ccc21)CO3` [Example 208] reads 45 nM. Same read-out and setting: next, `COc1ccc(C(=O)N[S@@]2(=O)=NC(=O)c3ccc4c(c3)N(C[C@@H]3CC[C@H]3[C@@H](OC)/C=C/C[C@H](C)C2)C[C@@]2(CCCc3cc(Cl)ccc32)CO4)cc1` [Example 273]: 81 nM.

On to `COc1nn(C)cc1C(=O)NS1(=O)=NC(=O)c2ccc3c(c2)N(C[C@@H]2CC[C@H]2[C@@H](OC)/C=C/C[C@H](C)C1)C[C@@]1(CCCc2cc(Cl)ccc21)CO3` (single isomer, unassigned) [Example 388], for which the concentration for a half-maximal effect (EC50) in assay [1] (Homo sapiens, SK-BR-3, 72 h) is 1400 nM. Take `CO[C@H]1/C=C/CCC[S@@](N)(=O)=NC(=O)c2ccc3c(c2)N(C[C@@H]2CC[C@H]21)C[C@@]1(CCCc2cc(Cl)ccc21)CO3` [Example 5]: the IC50 in assay [2] is 60.2 nM. On to `CO[C@H]1/C=C/C[C@H](C)C[S@@](=O)(NC(=O)c2cn(C)nc2OCCN2CCOCC2)=NC(=O)c2ccc3c(c2)N(C[C@@H]2CC[C@H]21)C[C@@]1(CCCc2cc(Cl)ccc21)CO3` [Example 319], for which, in assay [1] (72 hours), the concentration for a half-maximal effect (EC50) turned out to be 19.9 nM. The molecule `CCNC(=O)N[S@@]1(=O)=NC(=O)c2ccc3c(c2)N(C[C@@H]2CC[C@H]2[C@@H](OC)CCCCC1)C[C@@]1(CCCc2cc(Cl)ccc21)CO3` [Example 13] registered a half-maximal inhibitory concentration (IC50) in assay [2] of 1.8 nM. The same measure, in the same setting: next, `CCOC(=O)N[S@]1(=O)=NC(=O)c2ccc3c(c2)N(C[C@@H]2CC[C@H]2[C@@H](OC)/C=C/CCC1)C[C@@]1(CCCc2cc(Cl)ccc21)CO3` [Example 9]: 6.6 nM. `CO[C@H]1/C=C/CCC[S@@](=O)(NC(=O)C2CCC2)=NC(=O)c2ccc3c(c2)N(C[C@@H]2CC[C@H]21)C[C@@]1(CCCc2cc(Cl)ccc21)CO3` [Example 31]: the 50% effective concentration (EC50) in assay [1] (72 hours) is 2590 nM. Same read-out and setting: the result for `COC1CCn2cc(C(=O)N[S@@]3(=O)=NC(=O)c4ccc5c(c4)N(C[C@@H]4CC[C@H]4[C@@H](OC)/C=C/C[C@H](C)C3)C[C@@]3(CCCc4cc(Cl)ccc43)CO5)cc2C1` (stereo partly drawn) [Example 175] reads 33.9 nM. The molecule `CCC(=O)N[S@@]1(=O)=NC(=O)c2ccc3c(c2)N(C[C@@H]2CC[C@H]2[C@@H](O)/C=C/CCC1)C[C@@]1(CCCc2cc(Cl)ccc21)CO3` [Example 62] had a 50% inhibitory concentration (IC50) in assay [2] of 0.4 nM. For `CO[C@H]1/C=C/CCC[S@@](=O)(NC(=O)CC2CC2)=NC(=O)c2ccc3c(c2)N(C[C@@H]2CC[C@H]21)C[C@@]1(CCCc2cc(Cl)ccc21)CO3` [Example 21], the concentration for a half-maximal effect (EC50) in assay [1] (72 hours) turned out to be 1300 nM. Molecule `CO[C@H]1/C=C/C[C@H](C)C[S@@](=O)(NC(=O)C2CC(OC(F)F)C2)=NC(=O)c2ccc3c(c2)N(C[C@@H]2CC[C@H]21)C[C@@]1(CCCc2cc(Cl)ccc21)CO3` (stereo partly drawn) [Example 431] returned an IC50 in assay [2] of 0.121 nM. In the case of `CCNC(=O)N[S@@]1(=O)=NC(=O)c2ccc3c(c2)N(C[C@@H]2CC[C@H]2[C@@H](OC)CCCCC1)C[C@@]1(CCCc2cc(Cl)ccc21)CO3` [Example 14], the half-inhibitory concentration (IC50) in assay [2] is 0.3 nM. For the molecule `CO[C@H]1/C=C/C[C@H](C)C[S@@](=O)(NC(=O)N2CC(OC(=O)N(C)C)C2)=NC(=O)c2ccc3c(c2)N(C[C@@H]2CC[C@H]21)C[C@@]1(CCCc2cc(Cl)ccc21)CO3` [Example 292], the 50% effective concentration (EC50) in assay [1] (72 hours) was determined as 45.1 nM. On the same count and under the same terms, the result for `CO[C@H]1/C=C/CCC[S@@](=O)(NC(=O)Cc2ccnn2C)=NC(=O)c2ccc3c(c2)N(C[C@@H]2CC[C@H]21)C[C@@]1(CCCc2cc(Cl)ccc21)CO3` [Example 29] reads 1840 nM. On to `CCC(=O)N[S@]1(=O)=NC(=O)c2ccc3c(c2)N(C[C@@H]2CC[C@H]2[C@@H](OC)/C=C/CCC1)C[C@@]1(CCCc2cc(Cl)ccc21)CO3` [Example 3], for which, in assay [2], the IC50 came to 4.1 nM.

`CCC(=O)N[S@@]1(=O)=NC(=O)c2ccc3c(c2)N(C[C@@H]2CC[C@H]2[C@@H](OC)CCCCC1)C[C@@]1(CCCc2ccccc21)CO3` [Example 16] returned a concentration for half-maximal inhibition (IC50) in assay [2] of 4.2 nM. Still for that read-out and setting: next, `CCC(=O)N[S@]1(=O)=NC(=O)c2ccc3c(c2)N(C[C@@H]2CC[C@H]2[C@@H](OC)/C=C/CCCC1)C[C@@]1(CCCc2cc(Cl)ccc21)CO3` [Example 69]: 4 nM; `COc1nn(C)cc1C(=O)N[S@@]1(=O)=NC(=O)c2ccc3c(c2)N(C[C@@H]2CC[C@H]2[C@@H](O)/C=C/[C@H](O)[C@H](C)C1)C[C@@]1(CCCc2cc(Cl)ccc21)CO3` [Example 279]: 0.041 nM.

For `CCC(=O)N[S@]1(=O)=NC(=O)c2ccc3c(c2)N(C[C@@H]2CC[C@H]2[C@@H](O)/C=C/CCC1)C[C@@]1(CCCc2cc(Cl)ccc21)CO3` [Example 63], the concentration for half-maximal inhibition (IC50) in assay [2] was 1.4 nM. On to `COc1nn(C)cc1C(=O)N[S@@]1(=O)=NC(=O)c2ccc3c(c2)N(C[C@@H]2CC[C@H]2[C@@H](OC)/C=C/C[C@H](C)C1)C[C@@]1(CCCc2cc(Cl)ccc21)CO3` [Example 154], for which, in assay [1] (Homo sapiens, SK-BR-3, 72 h), the EC50 came out at 24.1 nM. `CCC(=O)N[S@@]1(=O)=NC(=O)c2ccc3c(c2)N(C[C@@H]2CC[C@H]2[C@@H](OC)CCCCC1)C[C@@]1(CCCc2cc(Cl)ccc21)CO3` [Example 11]: the IC50 in assay [2] was 6.5 nM. On to `CO[C@H]1/C=C\C[C@H](C)[C@@H](C)[S@@](=O)(NC(=O)COC2CCOCC2)=NC(=O)c2ccc3c(c2)N(C[C@@H]2CC[C@H]21)C[C@@]1(CCCc2cc(Cl)ccc21)CO3` [Example 406], for which the EC50 in assay [1] (72 hours) is 332 nM. Consider `CCC(=O)NS1(=O)=NC(=O)c2ccc3c(c2)N(C[C@@H]2CC[C@H]2[C@@H](OC)/C=C/CCC1)C[C@@]1(CCCc2cc(Cl)ccc21)CO3` (single isomer, unassigned) [Example 4], for which the IC50 in assay [2] was determined as 0.7 nM. On to `CO[C@H]1/C=C/C[C@H](C)C[S@@](=O)(NC(=O)c2cc3n(c2F)CCOC3)=NC(=O)c2ccc3c(c2)N(C[C@@H]2CC[C@H]21)C[C@@]1(CCCc2cc(Cl)ccc21)CO3` [Example 174], for which the EC50 in assay [1] (Homo sapiens, SK-BR-3, 72 h) came to 103 nM. With `CO[C@H]1/C=C/CCC[S@@](=O)(NC(=O)C2COC2)=NC(=O)c2ccc3c(c2)N(C[C@@H]2CC[C@H]21)C[C@@]1(CCCc2cc(Cl)ccc21)CO3` [Example 24], in assay [1] (72 hours), the EC50 amounted to 891 nM. Still for that read-out and setting: the result for `COC1CN(C(=O)N[S@@]2(=O)=NC(=O)c3ccc4c(c3)N(C[C@@H]3CC[C@H]3[C@@H](O)/C=C/C[C@H](C)C2)C[C@@]2(CCCc3cc(Cl)ccc32)CO4)C1` [Example 266] reads 53.8 nM; that for `CO[C@H]1/C=C/CCC[S@@](=O)(NC(=O)Cc2ncccn2)=NC(=O)c2ccc3c(c2)N(C[C@@H]2CC[C@H]21)C[C@@]1(CCCc2cc(Cl)ccc21)CO3` [Example 30], 1840 nM.

The EC50 is the concentration at which the effect is half-maximal. As usually defined, the IC50 is the midpoint of a concentration-inhibition curve. Lower therefore signals inhibition by little substance.
